According to ChEMBL document CHEMBL1130104 (J Med Chem, 1997):

Tests used:
[1] = system: HeLa; assay: Compound was tested for Anti-HIV activity by plaque reduction assay with wild type HIV-1LAI virus in HT4-6C human CD4+ […]; format: functional, cell-based
[2] = selectivity index expressed as TC50/EC50; EC50 values are calculated from […] cells infected with HIV-1LAI; format: functional
[3] = selectivity index expressed as TC50/EC50; EC50 values are calculated from HT4-6C cells infected with HIV-1LAI virus.
[4] = system: HeLa; assay: compound was tested for 50% toxic concentration by visual grading scale of cells after 3 days of drug treatment in HT4-6C cells.; format: functional; settings: Homo sapiens, 72 h, read-out: TC50 (the source's name)
[5] = compound was tested for 50% toxic concentration by flow cytometry after propidium iodide staining after 3 days of drug treatment in CEM lymphoblast cells.; settings: human, read-out: TC50
[6] = system: HeLa; assay: Compound was tested for Anti-HIV activity by plaque reduction assay with E89K virus in HT4-6C human CD4+ […]; format: functional, cell-based
[7] = system: HeLa; assay: Compound was tested for Anti-HIV activity by plaque reduction assay with A018-post virus in HT4-6C human CD4+ […]; format: functional, cell-based
[8] = selectivity index = TC50/EC50. The EC50 values are calculated from CEM lymphoblast cells infected with HIV-1LAI virus.; format: functional, CCRF-CEM

O=C(O)P(=O)(O)O [FOSCARNET]
EC50 [1]: 133 µM | Selectivity index [2]: >7.5 | Selectivity index [3]: 6 | CC50 [4]: 1000 µM | CC50 at 72 h [5]: 800 µM | EC50 [6]: > 1000 µM | EC50 [7]: 65 µM

CCCCCCCCCCCCCCCCCCOC(=O)P(=O)(O)OC[C@H]1O[C@@H](n2cc(C)c(=O)[nH]c2=O)C[C@@H]1N=[N+]=[N-].N
EC50 [1]: 0.1 µM | Selectivity index [2]: 100 | Selectivity index [3]: 280 | CC50 [4]: 10 µM | CC50 at 72 h [5]: 28 µM | EC50 [6]: 0.13 µM | EC50 [7]: 0.3 µM

Cc1cn([C@H]2C[C@H](N=[N+]=[N-])[C@@H](CO)O2)c(=O)[nH]c1=O [ZIDOVUDINE]
EC50 [1]: 0.013 µM | EC50 [6]: 0.009 µM | EC50 [7]: 2.9 µM

CCCCCCCCCCCCCCCCCCCCCCOC(=O)P(=O)(O)OC[C@H]1O[C@@H](n2cc(C)c(=O)[nH]c2=O)C[C@@H]1N=[N+]=[N-].N
EC50 [1]: 0.32 µM | Selectivity index [2]: 1000 | Selectivity index [8]: 291 | CC50 [4]: 320 µM | CC50 at 72 h [5]: 93 µM | EC50 [6]: 0.17 µM | EC50 [7]: 0.77 µM

CCCCCCCCCCCCCCCCCCCCOC(=O)P(=O)(O)OC[C@H]1O[C@@H](n2cc(C)c(=O)[nH]c2=O)C[C@@H]1N=[N+]=[N-].N
EC50 [1]: 0.14 µM | Selectivity index [2]: 228 | Selectivity index [8]: 257 | CC50 [4]: 32 µM | CC50 at 72 h [5]: 36 µM | EC50 [6]: 0.009 µM | EC50 [7]: 0.53 µM
